Columns and labels:
COLO-357 cells = experiment: Matrigel transwell invasion assay, COLO-357; type: cell-based, human; settings: COLO-357 transfected with miR-10b precursor, erlotinib 2 μM; for miR-10b's effects on combined EGF-TGF-β1 actions on invasion: 1 nM EGF + 0.5 nM TGF-β1, 20 h, SB505124 10 μM
Description: (§1) Invasion and Migration Assays. miR-10b precursor and precursor control transfected cells (5×104) were plated in Matrigel pre-coated transwell chambers (BD Biosciences, San Jose, Calif.) and assays performed as previously reported. UO126 (1 μM) were from Alexis Biochemicals (San Diego, Calif.). Erlotinib (2 μM; Genentech, Inc., South San Francisco, Calif.), and LY294002 (10 μM; Calbiochem, San Diego, Calif.), were added to SF in the lower chamber, in the absence or presence of 1 nM EGF and/or 0.5 nM TGF-β1. Wound healing assays were performed as previously reported. Briefly, 24 hours after cell transfection with pre-miR-10b oligonucleotides, cells were serum starved overnight, and the monolayer was scratched with a 200 μL pipette tip generating two parallel wounds. Cells were then rinsed twice with HBSS and incubated for 24 h in SF media in the absence or presence of 1 nM EGF, 0.5 nM TGF-β1, or their combination, and migration was calculated as the percent change in the wound area.

PANC-1 cells = experiment: Matrigel transwell invasion assay, PANC-1; type: cell-based, human; settings: PANC-1 transfected with miR-10b precursor, erlotinib 2 μM; for miR-10b's effects on combined EGF-TGF-β1 actions on invasion: 1 nM EGF + 0.5 nM TGF-β1, 20 h, SB505124 10 μM
Description: as §1

[1] = 1 nM EGF, 20 h, LY294002 10 μM, UO126 1 μM

Row | SMILES | miR-10b's effects on combined EGF-TGF-β1 actions on invasion (COLO-357 cells) | miR-10b's effects on combined EGF-TGF-β1 actions on invasion (PANC-1 cells) | EGF-induced invasion in the presence of miR-10b (COLO-357 cells; [1]) | EGF-induced invasion in the presence of miR-10b (PANC-1 cells; [1])
1 | Cc1cccc(-c2[nH]c(C(C)(C)C)nc2-c2ccc3c(c2)OCO3)n1 [SB505124] | markedly attenuated | markedly attenuated |  | 
2 | C#Cc1cccc(Nc2ncnc3cc(OCCOC)c(OCCOC)cc23)c1 [erlotinib] | markedly attenuated | markedly attenuated | completely blocked | completely blocked

— US20150141342A1, “BLOOD BORNE miRNA SIGNATURE FOR THE ACCURATE DIAGNOSIS OF PANCREATIC DUCTAL ADENOCARCINOMA” (Indiana University Research and Technology Corp., priority 2013, published 2015)
